Experimental data: article PMC5458252, “Niclosamide is a potential therapeutic for familial adenomatosis polyposis by disrupting Axin-GSK3 interaction” (Oncotarget, 2017)

Biological target: T1, GSK3β (Homo sapiens, UniProt P49841)
T1 construct: gene GSK3B; His-tagged recombinant GSK3β from sf9 insect cells
Experiment: SPR (ProteOn XPR36, immobilized recombinant GSK3β); supported by competition with FITC-Axin peptide (AFF assay)
Type: binding
Excerpt: SPR (ProteOn XPR36, immobilized recombinant GSK3β); supported by competition with FITC-Axin peptide (AFF assay) on GSK3β | wild type Axin peptide or niclosamide directly binds to GSK3, the equilibrium dissociation constant yielding a KD

T1 sequence (P49841 whole entry): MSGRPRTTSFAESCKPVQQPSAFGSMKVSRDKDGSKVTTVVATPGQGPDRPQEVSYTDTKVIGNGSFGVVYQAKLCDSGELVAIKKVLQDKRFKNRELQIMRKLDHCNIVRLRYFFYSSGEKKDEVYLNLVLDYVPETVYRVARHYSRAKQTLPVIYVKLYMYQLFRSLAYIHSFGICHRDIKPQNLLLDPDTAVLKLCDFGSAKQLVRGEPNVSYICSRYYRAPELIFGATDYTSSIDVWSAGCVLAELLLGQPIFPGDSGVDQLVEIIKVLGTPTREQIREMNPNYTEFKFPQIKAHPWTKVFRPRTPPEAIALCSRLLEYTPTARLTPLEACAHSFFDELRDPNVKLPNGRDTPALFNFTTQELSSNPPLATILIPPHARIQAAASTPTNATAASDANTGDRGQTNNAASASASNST

For `O=C(Nc1ccc([N+](=O)[O-])cc1Cl)c1cc(Cl)ccc1O` [Niclosamide], which Kd is on record?
The Kd was 34.5 µM.
